Values joined by “and” are separate entries in the source; they are usually repeats but may differ in a detail not shown here. Equal values may be shown once.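 Where inhibition never reached the appropriate level, the endpoint shown equals the highest concentration tested. Otherwise, values were interpolated linearly from a five-concentration, 48-hour dose response in 96-well plates. Abbreviation: GI50, concentration required for 50% inhibition of growth. TGI: concentration producing complete growth inhibition.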
Columns and labels:
Assay in all cases: NCI anticancer screen, dose series, 48 h
TK-10 renal = tested on: TK-10 renal
HCT-116 colon = tested on: HCT-116 colon
SN12C renal = tested on: SN12C renal
SK-OV-3 ovarian = tested on: SK-OV-3 ovarian
KM12 colon = tested on: KM12 colon
SNB-75 CNS = tested on: SNB-75 CNS
U251 CNS = tested on: U251 CNS
UACC-257 melanoma = tested on: UACC-257 melanoma
A549 NSCLC = tested on: A549 NSCLC
CCRF-CEM leukemia = tested on: CCRF-CEM leukemia
HL-60(TB) leukemia = tested on: HL-60(TB) leukemia

Row | SMILES | TGI (TK-10 renal) | TGI (HCT-116 colon) | TGI (SN12C renal) | TGI (SK-OV-3 ovarian) | TGI (KM12 colon) | TGI (SNB-75 CNS) | TGI (U251 CNS) | TGI (UACC-257 melanoma) | TGI (A549 NSCLC) | TGI (CCRF-CEM leukemia) | TGI (HL-60(TB) leukemia) | GI50 (TK-10 renal) | GI50 (SN12C renal) | GI50 (SK-OV-3 ovarian) | GI50 (KM12 colon) | GI50 (SNB-75 CNS) | GI50 (U251 CNS) | GI50 (UACC-257 melanoma)
1 | CC(=O)N1N=C(c2ccc3ccccc3c2O)CC1C(=O)c1ccco1 (stereo not drawn) | > 100 µM | > 100 µM | > 100 µM | > 100 µM | 44.8 µM | > 100 µM | > 100 µM | > 100 µM | > 100 µM | 24.9 µM | – | – | – | – | – | – | – | –
2 | O=C1CCCCC(=O)OC2(CCCCC2=O)CC1 (stereo not drawn) | > 100 µM | > 100 µM | > 100 µM | > 100 µM | > 100 µM | > 100 µM | > 100 µM | > 100 µM | > 100 µM | > 100 µM | – | – | – | – | – | – | – | –
3 | CC1(CF)SCc2nc3ccccc3n21 (stereo not drawn) | > 100 µM | > 100 µM | > 100 µM | > 100 µM | > 100 µM | > 100 µM | > 100 µM | > 100 µM | > 100 µM | – | > 100 µM | – | – | – | – | – | – | –
4 | COc1cc(CNc2ccc(SC)cc2)cc(OC)c1OC | > 93.3 µM and 77.5 µM | 51.1 µM and 35.4 µM | > 100 µM | 64.2 µM and 44.6 µM | > 62.7 µM and 20.7 µM | 86.3 µM and 65.5 µM | 61.6 µM and 32.9 µM | > 91.7 µM and 41.8 µM | > 100 µM | > 90.6 µM | 42.6 µM and 40.2 µM | 41 µM and 16.7 µM | 19.3 µM and 9.07 µM | 15.4 µM and 5.05 µM | 4.44 µM and 2.21 µM | 15.7 µM and 6.28 µM | 10.8 µM and 4.13 µM | 24.9 µM and 9.7 µM
5 | CCOC(=O)c1ccc(N2C(=S)N(C(=O)c3ccccc3)C(=Nc3ccccc3)C2=Nc2ccccc2)cc1 | > 100 µM | – | > 100 µM | > 100 µM | > 100 µM | 74.6 µM | > 100 µM | > 100 µM | > 100 µM | – | – | – | – | – | – | – | – | –
6 | CC(=O)OC1CC2C(C)(C)OC(=O)CC(OC(C)=O)[C@]2(C)C2CCC3(C)C(=CCC3[C@H]3COC(=O)C3)[C@]12C (stereo partly drawn) | > 100 µM | > 100 µM | > 100 µM | > 100 µM | > 100 µM | > 100 µM | > 100 µM | – | > 100 µM | 65.8 µM | > 100 µM | – | – | – | – | – | – | –
7 | Cc1ccc2nc(Cl)c(/C=N/N3C(=O)/C(=C/c4ccccc4S)N=C3c3ccccc3)cc2c1 | > 100 µM | > 100 µM | > 100 µM | > 100 µM | > 100 µM | 86.5 µM | > 100 µM | > 100 µM | > 100 µM | > 100 µM | 61.6 µM | – | – | – | – | – | – | –
8 | NC1=NS(=O)(=O)Nc2nc(-c3ccc([N+](=O)[O-])cc3)[nH]c21 | > 100 µM | > 100 µM | > 100 µM | > 100 µM | > 100 µM | > 100 µM | > 100 µM | – | > 100 µM | > 100 µM | > 100 µM | – | – | – | – | – | – | –
9 | Cc1cc(C2(O)C=C(C(C)(C)C)C(=O)C(C(C)(C)C)=C2)c(C)cc1C1(O)C=C(C(C)(C)C)C(=O)C(C(C)(C)C)=C1 | > 100 µM | > 100 µM | > 100 µM | > 100 µM | > 100 µM | > 100 µM | > 100 µM | > 100 µM | > 100 µM | > 100 µM | > 100 µM | – | – | – | – | – | – | –
10 | O=C(Cc1ccccc1)NN1C(=O)/C(=C\c2cccc(O)c2)SC1=Nc1ccccc1 | > 100 µM | > 100 µM | > 100 µM | > 100 µM | > 100 µM | > 100 µM | > 100 µM | > 100 µM | > 100 µM | – | – | – | – | – | – | – | – | –
11 | CN1NC(=Nc2ccccc2)Sc2c1cnn(-c1ccccc1)c2=O | > 100 µM | > 100 µM | > 100 µM | > 100 µM | > 100 µM | – | > 100 µM | > 100 µM | > 100 µM | > 100 µM | > 100 µM | – | – | – | – | – | – | –
12 | CC(C)C(=O)/C=C/c1ccc(Br)cc1 | 32.3 µM | 17.4 µM | 28.5 µM | 49.6 µM | 27.5 µM | 32.8 µM | 22.9 µM | 30.8 µM | 65.5 µM | 21.5 µM | 41.2 µM | – | – | – | – | – | – | –
13 | O=C(NCCCCCCNCc1cccc2ccccc12)Nc1cccc2ccccc12 | > 100 µM | > 100 µM | > 100 µM | – | > 100 µM | > 100 µM | > 100 µM | > 100 µM | > 100 µM | > 100 µM | > 100 µM | – | – | – | – | – | – | –
14 | CN(C)Cc1cc(C(=O)/C=C/c2ccccc2Cl)cc(CN(C)C)c1O | 34.9 µM | 19.8 µM | 23.6 µM | – | 20.3 µM | 19.7 µM | 27 µM | 30.1 µM | 38.7 µM | 8.82 µM | 27.2 µM | – | – | – | – | – | – | –
15 | OCC1OC(n2cnc3c(Cl)nc(Nc4ccccc4)nc32)CC1O (stereo not drawn) | > 100 µM | > 100 µM | > 100 µM | > 100 µM | > 100 µM | > 100 µM | > 100 µM | > 100 µM | 36.4 µM | > 100 µM | – | – | – | – | – | – | – | –
16 | COC(=O)OCC1OC(N2C(=O)NC(=O)C(Br)C2N=[N+]=[N-])CC1OC(=O)OC (stereo not drawn) | > 100 µM | > 100 µM | > 100 µM | > 100 µM | > 100 µM | > 100 µM | > 100 µM | > 100 µM | > 100 µM | > 100 µM | – | – | – | – | – | – | – | –
17 | Cc1cc(C)cc(Nc2cc(=O)[nH]c(=O)[nH]2)c1 | > 100 µM | > 100 µM | > 100 µM | – | > 100 µM | > 100 µM | > 100 µM | > 100 µM | > 100 µM | > 100 µM | > 100 µM | – | – | – | – | – | – | –
18 | COC(=O)[C@@H]1CCCN1CCN1CCC[C@H]1C(=O)OC | > 100 µM | > 100 µM | > 100 µM | > 100 µM | > 100 µM | – | > 100 µM | – | > 100 µM | – | – | – | – | – | – | – | – | –
19 | CC1=NN(c2ccc(S(=O)(=O)O)cc2)C2(C1)SCC(=O)N2c1nc2ccccc2s1 (stereo not drawn) | > 100 µM | > 100 µM | > 100 µM | > 100 µM | > 100 µM | > 100 µM | > 100 µM | > 100 µM | > 100 µM | – | – | – | – | – | – | – | – | –
20 | O=C1Nc2c(ccc(Cl)c2I)C1=O | 99.2 µM | 33.4 µM | 30.9 µM | 48.3 µM | 65.6 µM | – | 56.9 µM | – | > 100 µM | 60.9 µM | 48.1 µM | – | – | – | – | – | – | –
21 | Nc1c(Cl)ncnc1N[C@@H]1C[C@H]1CO | > 100 µM | > 100 µM | > 100 µM | – | > 100 µM | > 100 µM | > 100 µM | > 100 µM | > 100 µM | > 100 µM | > 100 µM | – | – | – | – | – | – | –
